{"source": "PubChem BioAssay AID256", "about": "(DTP/NCI, 2004)", "test_system": "CD2F1 mice, L1210 leukemia ip, survival T/C", "experiment": "NCI In Vivo Anticancer Drug Screen. Data for tumor model L1210 Leukemia (intraperitoneal) in CD2F1 (CDF1) mice", "conditions": "higher = longer survival", "method_in_brief": "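Implant tumor; dose compound or vehicle; measure endpoint in both groups; report treated divided by control.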", "note": "“And” between values parts separate entries of the source, which are not always exact repeats. Identical values can stand only once. Inconclusive results and toxic doses are left out.", "data": [{"compound": "Cc1c2ccncc2c(C)c2c1[nH]c1ccccc12", "values": [{"measurement": "T/C", "setting": "endpoint: mean survival time, dose: 2.0 mg/kg/injection, schedule: Q01DX009 (ip), vehicle: saline with Tween-80", "result": "113 % of control and 114 % of control and 105 % of control"}, {"measurement": "T/C", "setting": "endpoint: mean survival time, dose: 3.13 mg/kg/injection, schedule: Q01DX009 (ip), vehicle: water", "result": "119 % of control"}, {"measurement": "T/C", "setting": "endpoint: mean survival time, dose: 4.0 mg/kg/injection, schedule: Q01DX009 (ip), vehicle: saline with Tween-80", "result": "122 % of control and 124 % of control"}, {"measurement": "T/C", "setting": "endpoint: mean survival time, dose: 6.25 mg/kg/injection, schedule: Q01DX009 (ip), vehicle: other", "result": "157 % of control"}, {"measurement": "T/C", "setting": "endpoint: mean survival time, dose: 6.25 mg/kg/injection, schedule: Q01DX009 (ip), vehicle: water", "result": "151 % of control"}, {"measurement": "T/C", "setting": "endpoint: mean survival time, dose: 6.25 mg/kg/injection, schedule: Q01DX009 (oral), vehicle: other", "result": "116 % of control"}, {"measurement": "T/C", "setting": "endpoint: mean survival time, dose: 6.25 mg/kg/injection, schedule: Q01DX009 (oral), vehicle: saline", "result": "117 % of control"}, {"measurement": "T/C", "setting": "endpoint: mean survival time, dose: 6.25 mg/kg/injection, schedule: Q01DX009 (oral), vehicle: water", "result": "123 % of control"}, {"measurement": "T/C", "setting": "endpoint: mean survival time, dose: 6.25 mg/kg/injection, schedule: Q04DX003 (ip), vehicle: other", "result": "112 % of control"}, {"measurement": "T/C", "setting": "endpoint: mean survival time, dose: 6.25 mg/kg/injection, schedule: Q04DX003 (ip), vehicle: water", "result": "108 % of control"}, {"measurement": "T/C", "setting": "endpoint: mean survival time, dose: 10.0 mg/kg/injection, schedule: Q01DX001 (ip), vehicle: water", "result": "104 % of control"}, {"measurement": "T/C", "setting": "endpoint: mean survival time, dose: 10.0 mg/kg/injection, schedule: Q01DX009 (ip), vehicle: saline with Tween-80", "result": "153 % of control"}, {"measurement": "T/C", "setting": "endpoint: mean survival time, dose: 10.0 mg/kg/injection, schedule: Q04DX003 (ip), vehicle: saline with Tween-80", "result": "123 % of control"}, {"measurement": "T/C", "setting": "endpoint: mean survival time, dose: 12.5 mg/kg/injection, schedule: Q01DX009 (ip), vehicle: other", "result": "198 % of control"}, {"measurement": "T/C", "setting": "endpoint: mean survival time, dose: 12.5 mg/kg/injection, schedule: Q01DX009 (ip), vehicle: saline", "result": "180 % of control"}, {"measurement": "T/C", "setting": "endpoint: mean survival time, dose: 12.5 mg/kg/injection, schedule: Q01DX009 (ip), vehicle: water", "result": "208 % of control"}, {"measurement": "T/C", "setting": "endpoint: mean survival time, dose: 12.5 mg/kg/injection, schedule: Q01DX009 (oral), vehicle: saline", "result": "109 % of control"}, {"measurement": "T/C", "setting": "endpoint: mean survival time, dose: 12.5 mg/kg/injection, schedule: Q04DX003 (ip), vehicle: distilled water + Tween-80", "result": "111 % of control"}, {"measurement": "T/C", "setting": "endpoint: mean survival time, dose: 12.5 mg/kg/injection, schedule: Q04DX003 (ip), vehicle: saline with Tween-80", "result": "123 % of control"}, {"measurement": "T/C", "setting": "endpoint: mean survival time, dose: 12.5 mg/kg/injection, schedule: Q04DX003 (ip), vehicle: water", "result": "122 % of control and 124 % of control"}, {"measurement": "T/C", "setting": "endpoint: mean survival time, dose: 12.5 mg/kg/injection, schedule: Q04DX003 (oral), vehicle: other", "result": "103 % of control and 108 % of control"}, {"measurement": "T/C", "setting": "endpoint: mean survival time, dose: 12.5 mg/kg/injection, schedule: Q04DX003 (oral), vehicle: saline", "result": "113 % of control and 107 % of control"}, {"measurement": "T/C", "setting": "endpoint: mean survival time, dose: 12.5 mg/kg/injection, schedule: Q04DX003 (oral), vehicle: water", "result": "114 % of control and 109 % of control"}, {"measurement": "T/C", "setting": "endpoint: mean survival time, dose: 20.0 mg/kg/injection, schedule: Q01DX001 (ip), vehicle: water", "result": "104 % of control"}, {"measurement": "T/C", "setting": "endpoint: mean survival time, dose: 20.0 mg/kg/injection, schedule: Q01DX009 (ip), vehicle: saline with Tween-80", "result": "188 % of control and 205 % of control"}, {"measurement": "T/C", "setting": "endpoint: mean survival time, dose: 20.0 mg/kg/injection, schedule: Q04DX003 (ip), vehicle: saline with Tween-80", "result": "157 % of control"}, {"measurement": "T/C", "setting": "endpoint: mean survival time, dose: 25.0 mg/kg/injection, schedule: Q01DX009 (ip), vehicle: other", "result": "118 % of control"}, {"measurement": "T/C", "setting": "endpoint: mean survival time, dose: 25.0 mg/kg/injection, schedule: Q01DX009 (ip), vehicle: saline", "result": "218 % of control"}, {"measurement": "T/C", "setting": "endpoint: mean survival time, dose: 25.0 mg/kg/injection, schedule: Q01DX009 (ip), vehicle: water", "result": "100 % of control"}, {"measurement": "T/C", "setting": "endpoint: mean survival time, dose: 25.0 mg/kg/injection, schedule: Q01DX009 (oral), vehicle: other", "result": "163 % of control"}, {"measurement": "T/C", "setting": "endpoint: mean survival time, dose: 25.0 mg/kg/injection, schedule: Q01DX009 (oral), vehicle: water", "result": "159 % of control"}, {"measurement": "T/C", "setting": "endpoint: mean survival time, dose: 25.0 mg/kg/injection, schedule: Q04DX003 (ip), vehicle: distilled water + Tween-80", "result": "121 % of control"}, {"measurement": "T/C", "setting": "endpoint: mean survival time, dose: 25.0 mg/kg/injection, schedule: Q04DX003 (ip), vehicle: saline", "result": "156 % of control"}, {"measurement": "T/C", "setting": "endpoint: mean survival time, dose: 25.0 mg/kg/injection, schedule: Q04DX003 (ip), vehicle: water", "result": "157 % of control and 190 % of control"}, {"measurement": "T/C", "setting": "endpoint: mean survival time, dose: 25.0 mg/kg/injection, schedule: Q04DX003 (oral), vehicle: other", "result": "116 % of control"}, {"measurement": "T/C", "setting": "endpoint: mean survival time, dose: 25.0 mg/kg/injection, schedule: Q04DX003 (oral), vehicle: saline", "result": "116 % of control and 118 % of control"}, {"measurement": "T/C", "setting": "endpoint: mean survival time, dose: 25.0 mg/kg/injection, schedule: Q04DX003 (oral), vehicle: water", "result": "116 % of control"}, {"measurement": "T/C", "setting": "endpoint: mean survival time, dose: 32.0 mg/kg/injection, schedule: Q01DX009 (ip), vehicle: saline with Tween-80", "result": "182 % of control"}, {"measurement": "T/C", "setting": "endpoint: mean survival time, dose: 40.0 mg/kg/injection, schedule: Q01DX009 (ip), vehicle: saline with Tween-80", "result": "153 % of control"}, {"measurement": "T/C", "setting": "endpoint: mean survival time, dose: 40.0 mg/kg/injection, schedule: Q04DX003 (ip), vehicle: saline with Tween-80", "result": "182 % of control and 202 % of control"}, {"measurement": "T/C", "setting": "endpoint: mean survival time, dose: 50.0 mg/kg/injection, schedule: Q01DX009 (ip), vehicle: other", "result": "92 % of control"}, {"measurement": "T/C", "setting": "endpoint: mean survival time, dose: 50.0 mg/kg/injection, schedule: Q01DX009 (ip), vehicle: saline", "result": "185 % of control"}, {"measurement": "T/C", "setting": "endpoint: mean survival time, dose: 50.0 mg/kg/injection, schedule: Q01DX009 (ip), vehicle: water", "result": "87 % of control"}, {"measurement": "T/C", "setting": "endpoint: mean survival time, dose: 50.0 mg/kg/injection, schedule: Q01DX009 (oral), vehicle: saline", "result": "152 % of control"}, {"measurement": "T/C", "setting": "endpoint: mean survival time, dose: 50.0 mg/kg/injection, schedule: Q01DX009 (oral), vehicle: water", "result": "107 % of control"}, {"measurement": "T/C", "setting": "endpoint: mean survival time, dose: 50.0 mg/kg/injection, schedule: Q04DX003 (ip), vehicle: distilled water + Tween-80", "result": "156 % of control"}, {"measurement": "T/C", "setting": "endpoint: mean survival time, dose: 50.0 mg/kg/injection, schedule: Q04DX003 (ip), vehicle: saline with Tween-80", "result": "119 % of control"}, {"measurement": "T/C", "setting": "endpoint: mean survival time, dose: 50.0 mg/kg/injection, schedule: Q04DX003 (ip), vehicle: saline", "result": "177 % of control"}, {"measurement": "T/C", "setting": "endpoint: mean survival time, dose: 50.0 mg/kg/injection, schedule: Q04DX003 (ip), vehicle: water", "result": "186 % of control"}, {"measurement": "T/C", "setting": "endpoint: mean survival time, dose: 50.0 mg/kg/injection, schedule: Q04DX003 (oral), vehicle: other", "result": "153 % of control"}, {"measurement": "T/C", "setting": "endpoint: mean survival time, dose: 50.0 mg/kg/injection, schedule: Q04DX003 (oral), vehicle: saline", "result": "167 % of control"}, {"measurement": "T/C", "setting": "endpoint: mean survival time, dose: 50.0 mg/kg/injection, schedule: Q04DX003 (oral), vehicle: water", "result": "152 % of control and 158 % of control"}, {"measurement": "T/C", "setting": "endpoint: mean survival time, dose: 64.0 mg/kg/injection, schedule: Q01DX009 (ip), vehicle: saline with Tween-80", "result": "120 % of control and 102 % of control and 107 % of control"}, {"measurement": "T/C", "setting": "endpoint: mean survival time, dose: 80.0 mg/kg/injection, schedule: Q01DX001 (ip), vehicle: water", "result": "162 % of control"}, {"measurement": "T/C", "setting": "endpoint: mean survival time, dose: 100.0 mg/kg/injection, schedule: Q01DX001 (ip), vehicle: other", "result": "205 % of control"}, {"measurement": "T/C", "setting": "endpoint: mean survival time, dose: 100.0 mg/kg/injection, schedule: Q01DX009 (oral), vehicle: saline", "result": "94 % of control"}, {"measurement": "T/C", "setting": "endpoint: mean survival time, dose: 100.0 mg/kg/injection, schedule: Q04DX003 (ip), vehicle: distilled water + Tween-80", "result": "163 % of control and 177 % of control"}, {"measurement": "T/C", "setting": "endpoint: mean survival time, dose: 100.0 mg/kg/injection, schedule: Q04DX003 (ip), vehicle: saline", "result": "216 % of control"}, {"measurement": "T/C", "setting": "endpoint: mean survival time, dose: 100.0 mg/kg/injection, schedule: Q04DX003 (oral), vehicle: saline", "result": "163 % of control and 179 % of control"}, {"measurement": "T/C", "setting": "endpoint: mean survival time, dose: 200.0 mg/kg/injection, schedule: Q01DX001 (ip), vehicle: other", "result": "224 % of control"}, {"measurement": "T/C", "setting": "endpoint: mean survival time, dose: 200.0 mg/kg/injection, schedule: Q04DX003 (ip), vehicle: distilled water + Tween-80", "result": "113 % of control and 104 % of control"}, {"measurement": "T/C", "setting": "endpoint: mean survival time, dose: 200.0 mg/kg/injection, schedule: Q04DX003 (oral), vehicle: other", "result": "113 % of control"}, {"measurement": "T/C", "setting": "endpoint: mean survival time, dose: 200.0 mg/kg/injection, schedule: Q04DX003 (oral), vehicle: saline", "result": "122 % of control and 102 % of control"}, {"measurement": "T/C", "setting": "endpoint: mean survival time, dose: 400.0 mg/kg/injection, schedule: Q01DX001 (ip), vehicle: other", "result": "186 % of control"}, {"measurement": "T/C", "setting": "endpoint: mean survival time, dose: 400.0 mg/kg/injection, schedule: Q04DX003 (oral), vehicle: other", "result": "96 % of control"}, {"measurement": "T/C", "setting": "endpoint: median survival time, dose: 10.0 mg/kg/injection, schedule: Q01DX001 (ip), vehicle: water", "result": "106 % of control"}, {"measurement": "T/C", "setting": "endpoint: median survival time, dose: 20.0 mg/kg/injection, schedule: Q01DX001 (ip), vehicle: water", "result": "117 % of control"}, {"measurement": "T/C", "setting": "endpoint: median survival time, dose: 80.0 mg/kg/injection, schedule: Q01DX001 (ip), vehicle: water", "result": "153 % of control"}]}]}
